# Patent publication US6384056B1, “Heterocyclic thioesters or ketones for vision and memory disorders” (GPI NIL Holdings, Inc., priority 1998, dated 2002)
# pKi: −log10 of the molar value.
# Biological target: FKBP12 (Homo sapiens, UniProt P62942)
# Test: Ki test procedure: inhibition of peptidyl-prolyl isomerase (rotamase) activity, chymotrypsin-coupled assay
# Format: biochemical
# Conditions: apparent Ki
# Text: The inhibition of the prolyl peptidyl cis-trans isomerase activity of FKBP may be measured as an indicator of this affinity.
# Inhibition of the peptidyl-prolyl isomerase (rotamase) activity of the compounds used in the inventive methods and pharmaceutical compositions can be evaluated by known methods described in the literature (Harding et al., Nature, 1989, 341:758-760; Holt et al. J. Am. Chem. Soc., 115:9923-9938).
# The cis-trans isomerization of an alanine-proline bond in a model substrate, N-succinyl-Ala-Ala-Pro-Phe-p-nitroanilide, is monitored spectrophotometrically in a chymotrypsin-coupled assay, which releases para-nitroanilide from the trans form of the substrate. The inhibition of this reaction caused by the addition of different concentrations of inhibitor is determined, and the data is analyzed as a change in first-order rate constant as a function of inhibitor concentration to yield the apparent Ki values.
# In a plastic cuvette are added […] of ice cold assay buffer (25 mM HEPES, pH 7.8, 100 mM NaCl), […] of FKBP (2.5 mM in 10 mM Tris-Cl pH 7.5, 100 mM NaCl, 1 mM dithiothreitol), […] of chymotrypsin (50 mg/ml in 1 mM HCl) and […] of test compound at various concentrations in dimethyl sulfoxide. The reaction is initiated by the addition of 5 mL of substrate (succinyl-Ala-Phe-Pro-Phe-para-nitroanilide 5 mg/mL in 2.35 mM LiCl in trifluoroethanol).
# The absorbance at 390 nm versus time is monitored for 90 seconds using a spectrophotometer and the rate constants are determined from the absorbance versus time data files.
# FKBP12, sequence (P62942 whole entry, species assumed): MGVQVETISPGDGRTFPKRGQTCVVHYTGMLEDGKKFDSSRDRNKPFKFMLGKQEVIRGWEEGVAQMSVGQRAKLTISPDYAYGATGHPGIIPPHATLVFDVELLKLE
row,Molecule,pKi
1,"3-(para-Methoxyphenyl)-1-propyl 1-(2-phenyl-1,2-dioxoethyl)piperidine-2-carbothioate [Compound 43]",6.59
2,"2-Phenyl-1-ethyl (2S)-1-(1-cyclopentyl-1,2-dioxoethyl)-2-pyrrolidinecarbothioate [Compound 28]",6.97
3,"3-(3-Fluorophenyl)propyl 1-(3,3-dimethyl-2-oxopentanoyl)-2-piperidinecarbothioate [Compound 64]",6.79
4,"CCC(C)(C)C(=O)C(=O)N1CCCC[C@H]1C(=O)SCC(c1ccccc1)c1ccccc1 [Compound 49, 2,2-Diphenylethyl (2S)-1-(3,3-dimethyl-2-oxopentanoyl)-2-piperidinecarbothicate]",5.87
5,CCC(C)(C)C(=O)C(=O)N1CCCC1C(=O)SCc1csc2ccccc12 (stereo not shown) [Compound 11],6.52
6,"3-(3-Chlorophenyl)propyl (2S)-1-(3,3-dimethyl-2-oxopentanoyl)-2-pyrrolidinecarbothioate [Compound 54]",7.43
7,"1,5-Diphenyl-3-pentyl 1-(3,3-dimethyl-1,2-dioxopentyl)-2-piperidinecarbothioate [Compound 40]",5.91
8,"3-(1-Naphthyl)-1-propyl (2S)-1-(3,3-dimethyl-2-oxopentanoyl)-2-pyrrolidinecarbothioate [Compound 47]",7.68
9,"4-Phenylbutyl 1-(3,3-dimethyl-2-oxopentanoyl)-2-piperidinecarbothioate [Compound 59]",6.02
10,"3-Phenylpropyl 1-(3,3-dimethyl-2-oxopentanoyl)-2-piperidinecarbothioate [Compound 60]",7.05
11,"3-(2-Fluorophenyl)propyl (2S)-1-(3,3-dimethyl-2-oxopentanoyl)-2-pyrrolidinecarbothioate [Compound 57]",7.24
12,"4-Phenyl-1-butyl (2S)-1-(3,3-dimethyl-1,2-dioxopentyl)-2-pyrrolidinecarbothioate [Compound 34]",7.47
13,"2-Phenyl-1-ethyl 1-(2-phenyl-1,2-dioxoethyl)-2-piperidinecarbothioate [Compound 14]",6.50
14,"2-Phenyl-1-ethyl (2S)-1-(2-cyclohexyl-1,2-dioxoethyl)-2-pyrrolidinecarbothioate [Compound 12]",6.35
15,"2-Phenyl-1-ethyl 1-(3,3-dimethyl-1,2-dioxopentyl)-2-piperidinecarbothioate [Compound 10]",7.92
16,"4-Phenyl-1-butyl (2S)-1-(2-cyclohexyl-1,2-dioxoethyl)-2-pyrrolidinecarbothioate [Compound 33]",5.77
17,"4,4-Di(para-fluorophenyl)butyl 1-(3,3-dimethyl-2-oxopentanoyl)-2-pyrrolidinecarbothioate [Compound 46]",6.12
18,"CC(C)(C)C(=O)C(=O)N1CCC[C@H]1C(=O)CCCCc1ccccc1 [Compound 3, (2S)-2-(1-oxo-5-phenyl)-pentyl-1-(3,3-dimethyl-1,2-dioxobutyl)pyrrolidine]",7.07
19,"3-(1-Naphthyl)-1-propyl 1-(3,3-dimethyl-2-oxopentanoyl)-2-piperidinecarbothioate [Compound 53]",6.58
20,"4-Phenyl-1-butyl 1-(1,2-dioxo-3,3-dimethylbutyl)-2-piperidinecarbothioate [Compound 39]",6.46
21,"3-(3-Pyridyl)-1-propyl (2S)-1-(2-cyclohexyl-1,2-dioxoethyl)-2-pyrrolidinecarbothioate [Compound 35]",7.21
22,"3-Phenyl-1-propyl 1-(3,3-dimethyl-1,2-dioxobutyl)-2-piperidinecarbothioate [Compound 29]",7.23
23,"CCC(C)(C)C(=O)C(=O)N1CCC[C@H]1C(=O)CCCCc1ccccc1 [Compound 1, (2S)-3,3-dimethyl-1-[2-(5-phenylpentanoyl)pyrrolidinyl]pentane-1,2-dione]",7.51
24,"3-Phenyl-1-propyl (2S)-1-(2-cyclohexyl-1,2-dioxoethyl)-2-pyrrolidinecarbothioate [Compound 32]",6.44
25,"3-(2-Chlorophenyl)propyl (2S)-1-(3,3-dimethyl-2-oxopentanoyl)-2-pyrrolidinecarbothioate [Compound 61]",6.86
26,"3-(3-Fluorophenyl)propyl (2S)-1-(3,3-dimethyl-2-oxopentanoyl)-2-pyrrolidinecarbothioate [Compound 58]",7.10

# Tested on: retinal ganglion cell axons
# Test: protection of retinal ganglion cell axons from degeneration 14 days after optic nerve transection (RT97)
# Format: in vivo
# Conditions: ± SEM
# Text: Efficacy of represetative compounds from different immunophilin ligand series in protecting retinal ganglion cell axons from degeneration following optic nerve transection set forth in Table 9.
# Efficacy of representative compounds from different immunophilin ligand series in protecting retinal ganglion cell axons from degeneration following optic nerve transection
row,Molecule,RT 97 + RGC axon density 14 days after ON transaction (36 ON axons rescued)
1,CCC(C)(C)C(=O)C(=O)N1CCC[C@H]1C(=O)SCCC(c1ccccc1)c1ccccc1 [M],−6.3% +3.9% SEM
2,CCC(C)(C)C(=O)C(=O)N1CCCC[C@H]1C(=O)O [G],34.0% ±4.8% SEM
3,O=C(SCCCc1ccccc1)[C@@H]1CCCN1C(=O)NC12CC3CC(CC(C3)C1)C2 [B],100.0% ±5.2% SEM
4,O=C(SCCCc1ccccc1)[C@@H]1CCCN1S(=O)(=O)Cc1ccccc1 [C],60.4% ±3.1% SEM
5,CCC(C)(C)C(=O)C(=O)N1CCCC[C@H]1C(N)=O [H],30.3% ±8.0% SEM
6,CCC(C)(C)C(=O)C(=O)N1CCS[C@H]1C(=O)OCCCc1cccnc1 [F],55.1% ±5.9% SEM
7,CCC(C)(C)C(=O)C(=O)N1CCC[C@H]1C(=O)CCCCc1cccnc1 [J],15.8% ±4.8% SEM
8,O=C(OCCCc1ccccc1)[C@@H]1CCCCN1S(=O)(=O)Cc1ccccc1 [D],58.4% ±6.4% SEM
9,CCC(C)(C)C(=O)C(=O)N1CCCC[C@H]1C(=O)OC(CCc1ccccc1)CCc1ccccc1 [E],56.6% ±9.4% SEM
10,CCC(C)(C)C(=O)C(=O)N1CCCC[C@H]1C(=O)SCCC(c1ccccc1)c1ccccc1 [K],13.0% ±4.2% SEM
11,O=C(OCCCc1cccnc1)[C@@H]1CCCN1C(=S)NC1CCCCC1 [I],23.8% ±5.3 SEM
12,CCC(C)(C)C(=O)C(=O)N1CCC[C@H]1C(=O)O [L],7.8% ±3.0% SEM

# Tested on: not listed separately
# Test: Clearance
# Format: in vitro ADME
# Conditions: Table 9 comments
row,Molecule,Clearance
1,CCC(C)(C)C(=O)C(=O)N1CCC[C@H]1C(=O)SCCC(c1ccccc1)c1ccccc1 [M],12.5 µL/min
2,O=C(SCCCc1ccccc1)[C@@H]1CCCN1S(=O)(=O)Cc1ccccc1 [C],31.1 µL/min
3,CN(C)C(=O)N1CCC[C@H]1C(=O)SCCCc1ccccc1 [N],21.9 µL/min
4,CCC(C)(C)C(=O)C(=O)N1CCC[C@H]1C(=O)CCCCc1cccnc1 [J],1.5 µL/min
5,CCC(C)(C)C(=O)C(=O)N1CCCC[C@H]1C(=O)OC(CCc1ccccc1)CCc1ccccc1 [E],41.8 µL/min
6,CCC(C)(C)C(=O)C(=O)N1CCCC[C@H]1C(=O)SCCC(c1ccccc1)c1ccccc1 [K],4.5 µL/min
7,O=C(OCCCc1cccnc1)[C@@H]1CCCN1C(=S)NC1CCCCC1 [I],8.0 µL/min
8,CCC(C)(C)C(=O)C(=O)N1CCC[C@H]1C(=O)O [L],5.2 µL/min
